# Earlier results, collected in patent US8378072B2, “Methods for designing and synthesizing directed sequence polymer compositions via the directed expansion of epitope permeability” (Declion Pharmaceuticals, Inc., priority 2006, dated 2013).
# What was measured:
# [1] = limited human trials; Kim et al. Clinical Immunology 2002
# [2] = Raz et al., Lancet 2001
# [3] = compared with COP-1
# [4] = YFAK input ratio of 1:1:1:1 compared to input ratio of 1:1:10:6; Rasmussen et al.
substance,measurement,setting,value
"AKPVVHLFANIVTPRTP [altered peptide ligand (APL) made from MBP83-99, placed into limited human trials]",clinical efficacy by evaluation using MRI,[1],clinically ineffective
VLGGGVALLRVIPALDSLTPANED [p277],activity in the context of Type I diabetes,[2],apparent activity
"YFAK: random sequence polymer consisting of the amino acids Y, F, A, and K",efficacy in EAE,[3],better efficacy
same,eliciting a recall response,[4],not effective
